# Measured values published in patent US20030181354A1, “Method for central nervous system targeting through the ocular route of drug delivery” (priority 2002, published 2003).
# Experiments:
# [1] = tested on: migraine related symptoms; conditions: 0.2% topical to the eye, as additional antiglaucoma agent
# Source text: A patient with a history of migraine, and both eyes primary open angle glaucoma.
# A patient with a history of migraine, and right eye primary open angle glaucoma.
# [2] = Protocol: A study was conducted to examine for the first time the neuro-ocular tissue distribution of brimonidine following one single 50 μl instillation of 3H-Alphagan aqueous solution (0.2%) into the albino rabbit eye. Both eyes and the brain were dissected. Both side specimens of aqueous humor, cornea, iris, lens, vitreous, conjunctiva, sclera, ciliary body, choroid, retina, optic nerve, optic tract, olfactory bulb, as well as corpus callosum and blood samples were collected. The corpus callosum was chosen as an indicator of general availability of the drug in the brain. The olfactory bulbs were included to rule out ocular-brain drug delivery through the nasal cavity.
# In the method employed, following single instillation of 50 μl of [3H]-radio labeled brimonidine tartrate in the cul-de-sac of the right eye, male albino rabbits (2-2.5 kg) were sacrificed at the selected time point (15, 30 min., 1, 2. 3, and 4 h). Both eyes and the brain were dissected. Both sides specimens of aqueous humor, cornea, iris, lens, vitreous, conjunctiva, sclera, ciliary body, choroid, retina, optic nerve, optic tract, as well as chiasm, cerebral and blood samples were weighted before combustion in Packard sample Oxidizer (model 307), and radioactive [3H] brimonidine liquid scintillation counting.
# [3] = reported; cited from earlier work
# memory = conditions: very small doses, monkeys; cited from earlier work
# [4] = tested on: alpha 2-adrenoceptor regulated serotonin release; conditions: rat hippocampus in vivo; cited from earlier work
compound,measurement,setting,value
tartrate of 5-bromo-6-(2-imidozolin-2-ylamino) quinoxaline [brimonidine tartrate],patient-reported effect on migraine related symptoms,[1],substantial relief of migraine related symptoms
"Brc1c(NC2=NCCN2)ccc2nccnc12 [brimonidine, 5-bromo-6-(2-imidozolin-2-ylamino) quinoxaline]",contralateral eye choroid peak higher than in the blood,"[2]; 15 min, P<0.001",99.5 folds
same,contralateral eye ciliary body peak higher than in the blood,"[2]; 15 min, P<0.001",76.5 folds
same,corpus callosum AUC higher than in the left optic nerve,[2]; P<0.01,118%
same,corpus callosum AUC higher than in the right optic nerve,[2]; P<0.01,177%
same,corpus callosum AUC higher than in the right optic tract,[2]; P<0.05,123%
same,corpus callosum AUC higher than in the left optic tract,[2]; P<0.10,111%
same,corpus callosum 3H-brimonidine concentration,[2]; at 5 min,993.79 ± 48.43 ng/g
same,corpus callosum concentration higher than in the right optic nerve,"[2]; at 5 min, P<0.001",763%
same,brimonidine concentration in the corpus callosum higher than in the blood,"[2]; at 5 minutes, P<0.001",148 folds
same,drug concentration detected in the blood samples,"[2]; blood, after ocular instillation",extremely low
same,time of brimonidine delivery to the ciliary body of the contralateral eye,[2]; contralateral eye,< 5 min
same,ciliary body brimonidine level,"[2]; contralateral eye, 5 minutes post drug application",444.28 ± 86.38 ng/g
same,"ciliary body brimonidine level, peak","[2]; contralateral eye, 15 minutes",619.74 ± 36.35 ng/g
same,ciliary body AUC higher than in the conjunctiva,"[2]; contralateral eye, P<0.001",340%
same,ciliary body AUC higher than in the retina,"[2]; contralateral eye, P<0.001",322%
same,choroid AUC higher than in the conjunctiva,"[2]; contralateral eye, P<0.01",290%
same,choroid AUC higher than in the retina,"[2]; contralateral eye, P<0.01",275%
same,drug levels observed in the olfactory bulbs,[2]; olfactory bulbs,low
same,Vitreal AUC as % of aqueous humor AUC,"[2]; treated eye, P<0.01",8.85%
same,Choroidal brimonidine AUC higher than retinal AUC,"[2]; treated eye, p<0.001",196%
same,Retinal AUC higher than vitreous AUC,"[2]; treated eye, p<0.001",636%
same,Vitreal AUC as % of retinal AUC,"[2]; treated eye, p<0.001",15.7%
same,brimonidine AUC corpus callosum higher than blood,"[2]; whole study period, P<0.001",40 folds
same,systemic half life,[3],3 h
same,effect on memory,memory,reliable but modest improvement of memory
same,effect on release of serotonin (5-HT),[4],inhibitory action
